Assay [1] has as its system PC9 cells (EGFR Exon 19 del, non-small cell lung cancer cells). As to the kind of experiment: Cell viability assay (WST/CCK8), PC9 cells. Type of assay: cell-based. The settings on record: Homo sapiens, PC-9, PC9 (Exon19 Del), 72 hours, read-out: IC50 (half inhibitory concentration). An excerpt: The cell lines with abnormal EGFR expression used are as follows: • HCC827 cells (EGFR Exon19 del, non-small cell lung cancer cells); • PC9 cells (EGFR Exon 19 del, non-small cell lung cancer cells); • PC9BracA1 (EGFR Exon 19 del+T790M, non-small cell lung cancer cells) • H1975 (EGFR Exon T790M+L858R mutation, non-small cell lung cancer cell line) • BT474 cells (HER2 positive breast cancer cells)
All of the half inhibitory concentrations (IC50) of these compounds of the present invention were determined with WST reagent from Fuyuan Biotec Company. The specific experiment procedures are as follows: Cancer cells were planted in 96-well-plate at the density of 3 000 cells per well with 100 μL RPMI1640 completed culture medium. In the next day, compounds with indicated concentrations were added to the cells, DMSO was used as the negative control and the EGFR TKIs were used to treat cells as the positive groups. After 72 hours drug treatment, cell viability was measured by using the WST reagent following the instructions.
The cells were treated with the gradient concentration of these compounds (the maximum concentration: 10 μM; 3-fold dilution ratio, 10 concentration gradients) for 72 hours and then incubated with the WST (CCK8) reagent to determine the cell viability.

Assay [2] has as its system HCC827 cells (EGFR Exon19 del, non-small cell lung cancer cells). As to the kind of experiment: Cell viability assay (WST/CCK8), HCC827 cells. Type of assay: cell-based. The settings on record: Homo sapiens, HCC827, 72 h, HCC827 (Exon19 Del), 72 hours, read-out: IC50 (half inhibitory concentration). The method in brief: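 Plated 3 000 cells/well in complete RPMI1640 the day before dosing; controls were DMSO (negative) and EGFR TKIs (positive).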

The mark [3] stands for this setting: Table 6, canertinib-based compounds, WST.

Molecules are shown by their SMILES. Where two headings read alike, the source gives them in different places.

With `COc1cc2ncnc(Nc3ccc(F)c(Cl)c3)c2cc1NC(=O)/C=C/CN1CCN(C(=O)COCCOCCSc2cccc3c2CN(C2CCC(=O)NC2=O)C3=O)CC1` (centres unmarked) [SIAIS262001, (E)-N-(4-((3-chloro-4-fluorophenyl)amino)-7-methoxyquinazolin-6-yl)-4-(4-(2-(2-(2-((2-(2,6-dioxopiperidin-3-yl)-1-oxoisoindolin-4-yl)thio)ethoxy)ethoxy)acetyl)piperazin-1-yl)but-2-enamide], the IC50 in assay [1] (WST (CCK8)) is 53 nM; in assay [2] (WST (CCK8)), 26.9 nM.

`COc1cc2ncnc(Nc3ccc(F)c(Cl)c3)c2cc1OCCCN1CCN(C(=O)CCCCCSc2cccc3c2C(=O)N(C2CCC(=O)NC2=O)C3=O)CC1` (centres unmarked) [SIAIS184166, 4-((6-(4-(3-((4-((3-chloro-4-fluorophenyl)amino)-7-methoxyquinazolin-6-yl)oxy)propyl)piperazin-1-yl)-6-oxohexyl)thio)-2-(2,6-dioxopiperidin-3-yl)isoindoline-1,3-dione]: the IC50 in assay [1] (Table 4, gefitinib-based compounds, WST) stood at 692 nM; in assay [2] (Table 4, gefitinib and sapitinib-based compounds, WST) it was 80 nM.

Turning to `COc1cc2ncnc(Nc3ccc(F)c(Cl)c3)c2cc1NC(=O)/C=C/CN1CCN(C(=O)CNc2cccc3c2C(=O)N(C2CCC(=O)NC2=O)C3=O)CC1` (centres unmarked) [SIAIS219194, (E)-N-(4-((3-chloro-4-fluorophenyl)amino)-7-methoxyquinazolin-6-yl)-4-(4-(2-((2-(2,6-dioxopiperidin-3-yl)-1,3-dioxoisoindolin-4-yl)amino)acetyl)piperazin-1-yl)but-2-enamide], the IC50 came to 4 nM in assay [1] (WST (CCK8)) and 5.3 nM in assay [2] (WST (CCK8)).

Consider `COc1cc2ncnc(Nc3ccc(F)c(Cl)c3)c2cc1NC(=O)/C=C/CN1CCN(C(=O)COCCOCCOCCOCCSc2cccc3c2C(=O)N(C2CCC(=O)NC2=O)C3=O)CC1` (centres unmarked) [SIAIS262007, (E)-N-(4-((3-chloro-4-fluorophenyl)amino)-7-methoxyquinazolin-6-yl)-4-(4-(14-((2-(2,6-dioxopiperidin-3-yl)-1,3-dioxoisoindolin-4-yl)thio)-3,6,9,12-tetraoxatetradecanoyl)piperazin-1-yl)but-2-enamide], for which the values for the IC50 in assay [1] (WST (CCK8)) and in assay [2] (WST (CCK8)) were 84 nM and 26 nM, respectively.

Regarding `COc1cc2ncnc(Nc3ccc(F)c(Cl)c3)c2cc1NC(=O)/C=C/CN1CCN(C(=O)CCCCCCSc2cccc3c2CN(C2CCC(=O)NC2=O)C3=O)CC1` (centres unmarked) [SIAIS219190, (E)-N-(4-((3-chloro-4-fluorophenyl)amino)-7-methoxyquinazolin-6-yl)-4-(4-(7-((2-(2,6-dioxopiperidin-3-yl)-1-oxoisoindolin-4-yl)thio)heptanoyl)piperazin-1-yl)but-2-enamide], the IC50 in assay [1] (WST (CCK8)) was determined as 7.2 nM; in assay [2] (WST (CCK8)), 18.6 nM.

Consider `COc1cc2ncnc(Nc3ccc(F)c(Cl)c3)c2cc1NC(=O)/C=C/CN1CCN(C(=O)CCSc2cccc3c2CN(C2CCC(=O)NC2=O)C3=O)CC1` (centres unmarked) [SIAIS219186, (E)-N-(4-((3-chloro-4-fluorophenyl)amino)-7-methoxyquinazolin-6-yl)-4-(4-(3-((2-(2,6-dioxopiperidin-3-yl)-1-oxoisoindolin-4-yl)thio)propanoyl)piperazin-1-yl)but-2-enamide], for which the IC50 in assay [1] (WST (CCK8)) amounted to 21.7 nM; in assay [2] (WST (CCK8)), 6 nM.

For the compound `COc1cc2ncnc(Nc3ccc(F)c(Cl)c3)c2cc1NC(=O)/C=C/CN1CCN(C(=O)COCCSc2cccc3c2CN(C2CCC(=O)NC2=O)C3=O)CC1` (centres unmarked) [SIAIS219193, (E)-N-(4-((3-chloro-4-fluorophenyl)amino)-7-methoxyquinazolin-6-yl)-4-(4-(2-(2-((2-(2,6-dioxopiperidin-3-yl)-1-oxoisoindolin-4-yl)thio)ethoxy)acetyl)piperazin-1-yl)but-2-enamide], the IC50 in assay [1] (WST (CCK8)) amounted to 43.6 nM; in assay [2] (WST (CCK8)) it was 2.2 nM.

For the compound `COc1cc2ncnc(Nc3ccc(F)c(Cl)c3)c2cc1NC(=O)/C=C/CN1CCC(N2CCN(C(=O)CCc3ccc(CCC(=O)N[C@H](C(=O)N4C[C@H](O)C[C@H]4C(=O)NCc4ccc(-c5scnc5C)cc4)C(C)(C)C)cc3)CC2)CC1` [SIAIS249106, (2S,4R)-1-((S)-2-(3-(4-(3-(4-(1-((E)-4-((4-((3-chloro-4-fluorophenyl)amino)-7-methoxyquinazolin-6-yl)amino)-4-oxobut-2-en-1-yl)piperidin-4-yl)piperazin-1-yl)-3-oxopropyl)phenyl)propanamido)-3,3-dimethylbutanoyl)-4-hydroxy-N-(4-(4-methylthiazol-5-yl)benzyl)pyrrolidine-2-carboxamide], the results for the IC50 in assay [1] (WST (CCK8)) and in assay [2] (WST (CCK8)) were 50.1 nM and 16.2 nM, respectively.

Take `C=CC(=O)Nc1cc2c(Nc3ccc(F)c(Cl)c3)ncnc2cc1OCCCN1CCN(C(=O)CCC(=O)NCCNc2cccc3c2C(=O)N(C2CCC(=O)NC2=O)C3=O)CC1` (centres unmarked) [SIAIS249100, 4-(4-(3-((6-acrylamido-4-((3-chloro-4-fluorophenyl)amino)quinazolin-7-yl)oxy)propyl)piperazin-1-yl)-N-(2-((2-(2,6-dioxopiperidin-3-yl)-1,3-dioxoisoindolin-4-yl)amino)ethyl)-4-oxobutanamide]: the IC50 in assay [1] (setting [3]) worked out at 88.5 nM; in assay [2] (setting [3]), 41 nM.

Turning to `COc1cc2ncnc(Nc3ccc(F)c(Cl)c3)c2cc1NC(=O)/C=C/CN1CCC(N2CCN(CCCCCCCCCCSc3cccc4c3CN(C3CCC(=O)NC3=O)C4=O)CC2)CC1` (centres unmarked) [SIAIS337039, (E)-N-(4-((3-chloro-4-fluorophenyl)amino)-7-methoxyquinazolin-6-yl)-4-(4-(4-(10-((2-(2,6-dioxopiperidin-3-yl)-1-oxoisoindolin-4-yl)thio)decyl)piperazin-1-yl)piperidin-1-yl)but-2-enamide], the IC50 in assay [1] (WST (CCK8)) is 19.7 nM; in assay [2] (WST (CCK8)), 5.7 nM.

On to `COc1cc2ncnc(Nc3ccc(F)c(Cl)c3)c2cc1NC(=O)/C=C/CN1CCC(N2CCN(C(=O)CCN3CCN(CCC(=O)N[C@H](C(=O)N4C[C@H](O)C[C@H]4C(=O)NCc4ccc(-c5scnc5C)cc4)C(C)(C)C)CC3)CC2)CC1` [SIAIS249105, (2S,4R)-1-((S)-2-(3-(4-(3-(4-(1-((E)-4-((4-((3-chloro-4-fluorophenyl)amino)-7-methoxyquinazolin-6-yl)amino)-4-oxobut-2-en-1-yl)piperidin-4-yl)piperazin-1-yl)-3-oxopropyl)piperazin-1-yl)propanamido)-3,3-dimethylbutanoyl)-4-hydroxy-N-(4-(4-methylthiazol-5-yl)benzyl)pyrrolidine-2-carboxamide], for which the IC50 in assay [1] (WST (CCK8)) is 60.5 nM; in assay [2] (WST (CCK8)) it was 54.3 nM.

Take `COc1cc2ncnc(Nc3ccc(F)c(Cl)c3)c2cc1NC(=O)/C=C/CN1CCN(C(=O)CSc2cccc3c2C(=O)N(C2CCC(=O)NC2=O)C3=O)CC1` (centres unmarked) [SIAIS249034, (E)-N-(4-((3-chloro-4-fluorophenyl)amino)-7-methoxyquinazolin-6-yl)-4-(4-(2-((2-(2,6-dioxopiperidin-3-yl)-1,3-dioxoisoindolin-4-yl)thio)acetyl)piperazin-1-yl)but-2-enamide]: the IC50 in assay [1] (WST (CCK8)) worked out at 167 nM; in assay [2] (WST (CCK8)), 23 nM.

Turning to `COc1cc2ncnc(Nc3ccc(F)c(Cl)c3)c2cc1NC(=O)/C=C/CN1CCN(C(=O)CCCNc2cccc3c2C(=O)N(C2CCC(=O)NC2=O)C3=O)CC1` (centres unmarked) [SIAIS249062, (E)-N-(4-((3-chloro-4-fluorophenyl)amino)-7-methoxyquinazolin-6-yl)-4-(4-(4-((2-(2,6-dioxopiperidin-3-yl)-1,3-dioxoisoindolin-4-yl)amino)butanoyl)piperazin-1-yl)but-2-enamide], the results for the IC50 in assay [1] (WST (CCK8)) and in assay [2] (WST (CCK8)) were 10 nM and 3.7 nM, respectively.
